The values below come from ChEMBL document CHEMBL1152014, “Synthesis of thiophenol derivatives as inhibitors of human collagenase” (Bioorg Med Chem Lett, 1995).

Molecules are shown by their SMILES.

In this experiment the target is T1, Interstitial collagenase (Homo sapiens, UniProt P03956).
T1 sequence (P03956 whole entry): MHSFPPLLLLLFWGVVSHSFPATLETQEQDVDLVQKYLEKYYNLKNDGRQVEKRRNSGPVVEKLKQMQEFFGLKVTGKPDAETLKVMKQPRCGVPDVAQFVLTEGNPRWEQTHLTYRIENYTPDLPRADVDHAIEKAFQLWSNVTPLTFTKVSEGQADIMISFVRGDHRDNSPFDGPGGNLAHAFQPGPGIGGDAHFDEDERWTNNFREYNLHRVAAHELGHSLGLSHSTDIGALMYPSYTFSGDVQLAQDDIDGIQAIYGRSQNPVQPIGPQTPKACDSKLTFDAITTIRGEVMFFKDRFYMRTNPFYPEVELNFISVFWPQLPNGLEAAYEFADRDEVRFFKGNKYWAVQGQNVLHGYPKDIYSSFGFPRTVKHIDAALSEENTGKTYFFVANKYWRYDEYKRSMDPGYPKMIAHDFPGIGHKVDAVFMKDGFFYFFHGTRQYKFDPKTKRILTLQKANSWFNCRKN
Put plainly: Inhibitory activity was tested against human collagenase (MMP-1).
For `CNC(=O)[C@H](Cc1ccc(OC)cc1)NC(=O)[C@H](CC(C)C)[C@H](C)S`, 0.017 µM corresponded to half-maximal inhibition (IC50). `CNC(=O)[C@H](Cc1ccc(OC)cc1)NC(=O)C(Cc1c(S)cccc1Cl)CC(C)C` (stereo not given in full): the IC50 (usually the concentration needed to halve the response being measured) was 0.32 µM. For the compound `CNC(=O)[C@H](Cc1ccccc1)NC(=O)[C@@H](Cc1ccccc1S)CC(C)C`, the IC50 turned out to be 1.1 µM. Next, `CNC(=O)[C@H](Cc1ccc(OC)cc1)NC(=O)[C@@H](Cc1ccccc1S)CC(C)C`: 0.34 µM. `CNC(=O)[C@H](Cc1ccc(OC)cc1)NC(=O)[C@H](Cc1ccccc1S)CC(C)C` yielded an IC50 of 0.055 µM. On to `CNC(=O)[C@H](Cc1ccccc1)NC(=O)[C@H](Cc1ccccc1S)CC(C)C`, for which half-maximal inhibition (IC50) was put at 0.03 µM. On to `CC(C)CC(Cc1ccccc1S)C(=O)NC1CCCCCCCCCCNC1=O` (stereo not given), for which the IC50 was above 100 µM. For the compound `CNC(=O)[C@H](Cc1ccc(OC)cc1)NC(=O)[C@@H](Cc1cccc(OC)c1S)CC(C)C`, the 50% inhibitory concentration (IC50) was 0.22 µM.

`CNC(=O)[C@H](Cc1ccc(OC)cc1)NC(=O)C(Cc1ccc(Cl)cc1S)CC(C)C` (stereo not given in full) yielded a 50% inhibitory concentration (IC50) of 0.23 µM. `CNC(=O)[C@H](Cc1ccc(OC)cc1)NC(=O)C(Cc1cccc(Cl)c1S)CC(C)C` (stereo not given in full) displayed a 50% inhibitory concentration (IC50) of 0.33 µM. The value for `CNC(=O)[C@H](Cc1ccc(OC)cc1)NC(=O)[C@H](Cc1cccc(OC)c1S)CC(C)C` was 0.16 µM.

`CNC(=O)[C@H](Cc1ccc(OC)cc1)NC(=O)[C@H](CC(C)C)[C@@H](S)c1ccccc1` showed an IC50 of 0.27 µM.

For `CNC(=O)[C@H](Cc1ccc(OC)cc1)NC(=O)C(Cc1ccc[nH]c1=S)CC(C)C` (stereo not given in full), the IC50 was above 100 µM. The compound `CNC(=O)[C@H](Cc1ccc(OC)cc1)NC(=O)C(Cc1cccc(C(F)(F)F)c1S)CC(C)C` (stereo not given in full) had an IC50 of 0.29 µM.

Compound `CNC(=O)[C@H](Cc1ccc(OC)cc1)NC(=O)C(Cc1ccc(OC)cc1S)CC(C)C` (stereo not given in full) returned an IC50 of 0.14 µM.
